Results published in US8598190B2, “3H-imidazo [4, 5-C] pyridine-6-carboxamides as anti-inflammatory agents” (Boehringer Ingelheim International GmbH, priority 2008, dated 2013).

Biological target: T1, recombinant human mPGES-1 (Homo sapiens, UniProt O14684)
T1 construct: made in house; host or cells: Rosetta E. coli (microsomal/membrane fraction)
T1 sequence (O14684 1-152): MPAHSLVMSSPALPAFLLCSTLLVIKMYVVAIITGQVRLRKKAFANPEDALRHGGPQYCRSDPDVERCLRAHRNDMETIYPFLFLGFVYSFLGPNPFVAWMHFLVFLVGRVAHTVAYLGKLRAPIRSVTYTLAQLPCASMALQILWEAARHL
Experiment: mPGES-1 inhibition test (microsomes, HTRF detection of PGE2)
Format: biochemical
Procedure: Microsomes from Rosetta E. coli bacteria expressing recombinant human mPGES-1 is dissolved in 0.1 M KPi pH 7.4 buffer containing 2.5 mM GSH. 50 μl of the enzyme is subsequently dispensed in a 384-well plate. 0.5 μl of the inhibitor dissolved in DMSO at is thereafter added to each well and incubated for 25 minutes at room temperature.
Subsequently, 2 μl of PGH2 dissolved in an appropriate solvent is added to each well and after one minute the acidified stop solution containing FeCl2 is added. 4 μl of the total volume is transferred to a separate plate and diluted 750-fold in two separate steps before HTRF detection of PGE2.
The HTRf detection is performed by the use of a commercially available kit from CisBio essentially according to the manufacturer's protocol. Briefly, 10 μl of the diluted sample is transferred to a white 384-well plate. 5 μl of d2 and 5 μl Eu3+-Cryptate labeled anti-PGE2 is added to each well containing samples by the use of a Multidrop. The plate is covered with a plastic self-adhesive film, centrifuged at 1200 rpm for 1 minute and subsequently stored at +4° C. over night.
After over night incubation the fluorescence is measured by the use of an appropriate microplate reader. The fluorescence of europium cryptate, and d2 are measured using the following excitation and emission wavelength, europium cryptate: λmax^ex=307 nm, λmax^em=620 nm and d2: λmax^ex=620 nm, λmax^em=665 nm), respectively. The extent of the specific FRET is measured as a ratio of the emission intensity at 665 nm vs. that at 620 nm. A standard curve using synthetic PGE2 is used to quantify the amount of PGE2 in unknown samples.

inhibition at 10 µM [%] | SMILES
100 | CN(C)c1cc(C(F)(F)F)cc(NC(=O)c2cc3[nH]c(Nc4c(Cl)cncc4Cl)nc3cn2)n1 [Example 739, 2-(3,5-Dichloro-pyridin-4-yl-amino)-N-(6-dimethylamino-4-trifluoromethyl-pyridin-2-yl)-1H-imidazo[4,5-c]pyridine-6-carboxamide]
100 | O=C(Nc1cc(C(F)(F)F)cc(C2CC2)n1)c1cc2[nH]c(Nc3c(Cl)cncc3Cl)nc2cn1 [Example 740, 2-(3,5-Dichloro-pyridin-4-yl-amino)-N-(6-cyclopropyl-4-trifluoromethyl-pyridin-2-yl)-1H-imidazo[4,5-c]pyridine-6-carboxamide]
